Reference: ChEMBL document CHEMBL1201862, “PubChem BioAssay data set” (2004)
Active and inactive are the calls of the source.

Experiments:
[1] = molecular target: T1, Sentrin-specific protease 7 (Homo sapiens, UniProt Q9BQF6); assay type: functional;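 also: Luminescence-based dose-response confirmation of ultra-high-throughput screening hits, measuring inhibition of SENP7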
T1 sequence (Q9BQF6 whole entry): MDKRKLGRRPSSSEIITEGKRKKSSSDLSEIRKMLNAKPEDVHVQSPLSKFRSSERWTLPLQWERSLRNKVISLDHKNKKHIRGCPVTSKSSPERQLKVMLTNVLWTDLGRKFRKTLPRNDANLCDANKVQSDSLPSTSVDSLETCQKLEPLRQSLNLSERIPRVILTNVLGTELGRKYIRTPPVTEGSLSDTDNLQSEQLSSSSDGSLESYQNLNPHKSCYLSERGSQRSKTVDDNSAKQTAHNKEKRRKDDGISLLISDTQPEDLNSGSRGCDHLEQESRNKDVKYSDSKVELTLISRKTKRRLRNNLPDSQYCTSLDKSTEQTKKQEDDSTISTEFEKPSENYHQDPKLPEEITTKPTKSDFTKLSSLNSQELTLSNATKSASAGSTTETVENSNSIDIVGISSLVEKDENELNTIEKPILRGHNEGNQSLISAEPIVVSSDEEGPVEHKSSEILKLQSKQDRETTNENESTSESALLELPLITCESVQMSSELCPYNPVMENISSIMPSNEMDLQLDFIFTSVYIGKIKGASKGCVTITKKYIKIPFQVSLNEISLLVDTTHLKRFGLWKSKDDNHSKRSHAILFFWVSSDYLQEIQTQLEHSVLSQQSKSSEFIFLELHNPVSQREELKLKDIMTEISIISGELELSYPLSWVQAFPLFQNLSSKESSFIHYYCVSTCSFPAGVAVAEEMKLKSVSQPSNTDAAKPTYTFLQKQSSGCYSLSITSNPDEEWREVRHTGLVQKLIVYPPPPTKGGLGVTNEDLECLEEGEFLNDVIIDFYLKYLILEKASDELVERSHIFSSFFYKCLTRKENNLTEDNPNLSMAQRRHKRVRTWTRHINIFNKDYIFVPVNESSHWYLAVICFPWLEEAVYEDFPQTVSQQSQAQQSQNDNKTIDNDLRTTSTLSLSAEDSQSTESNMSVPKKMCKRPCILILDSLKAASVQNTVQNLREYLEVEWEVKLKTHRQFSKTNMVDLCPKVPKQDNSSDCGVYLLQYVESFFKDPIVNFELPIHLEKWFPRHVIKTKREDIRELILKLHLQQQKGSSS

[2] = system: Streptococcus sp. 'group A'; assay: Streptococcus pyogenes SK(-)GAS viability under kanamycin – luminescence, BacTiterGlo, confirmation, counter-screen for streptokinase expression inhibitor project, dose response (AID 1900); assay type: functional, organism-based
[3] = molecular target: T2, Sentrin-specific protease 6 (Homo sapiens, UniProt Q9GZR1); assay type: functional;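 also: Luminescence-based dose-response confirmatory assay of SENP6 inhibition, following up an ultra-high-throughput screen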
T2 sequence (Q9GZR1 whole entry): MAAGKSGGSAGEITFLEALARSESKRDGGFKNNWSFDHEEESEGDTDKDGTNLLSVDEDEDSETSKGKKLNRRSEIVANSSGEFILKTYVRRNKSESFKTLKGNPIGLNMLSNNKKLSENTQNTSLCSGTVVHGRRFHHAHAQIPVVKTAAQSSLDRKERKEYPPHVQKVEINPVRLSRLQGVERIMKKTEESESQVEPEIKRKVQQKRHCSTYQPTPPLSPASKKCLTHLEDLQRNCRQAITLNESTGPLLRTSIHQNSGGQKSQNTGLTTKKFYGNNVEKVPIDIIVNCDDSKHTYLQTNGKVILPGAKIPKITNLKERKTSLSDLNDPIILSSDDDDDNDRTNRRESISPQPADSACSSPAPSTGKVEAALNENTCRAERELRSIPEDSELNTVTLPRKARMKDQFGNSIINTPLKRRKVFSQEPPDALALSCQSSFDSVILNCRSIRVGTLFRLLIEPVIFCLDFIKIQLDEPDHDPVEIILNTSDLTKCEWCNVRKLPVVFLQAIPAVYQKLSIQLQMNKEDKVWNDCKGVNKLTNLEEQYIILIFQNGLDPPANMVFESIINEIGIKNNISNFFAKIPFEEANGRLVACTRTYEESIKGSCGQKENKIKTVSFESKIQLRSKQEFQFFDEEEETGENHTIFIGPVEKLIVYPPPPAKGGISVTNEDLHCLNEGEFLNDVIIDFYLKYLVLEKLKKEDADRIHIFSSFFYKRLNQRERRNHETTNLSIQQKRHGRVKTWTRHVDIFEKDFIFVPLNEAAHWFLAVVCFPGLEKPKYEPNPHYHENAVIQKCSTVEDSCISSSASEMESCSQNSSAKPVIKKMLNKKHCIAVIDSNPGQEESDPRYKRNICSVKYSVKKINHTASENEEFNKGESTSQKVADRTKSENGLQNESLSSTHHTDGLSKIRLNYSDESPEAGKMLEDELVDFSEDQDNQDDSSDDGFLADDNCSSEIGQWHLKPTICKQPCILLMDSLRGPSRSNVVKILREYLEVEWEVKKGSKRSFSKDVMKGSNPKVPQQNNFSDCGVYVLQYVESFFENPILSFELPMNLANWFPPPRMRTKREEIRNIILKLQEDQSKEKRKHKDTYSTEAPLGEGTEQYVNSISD

Streptococcus = assay: GAS UMAA2166 growth inhibition – luminescence, BacTiterGlo, counter-screen for streptokinase expression inhibitor project, dose response (AID 1915); assay type: functional, organism-based;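 also: potency for reduction of bacterial viability or growth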
Streptokinase A = molecular target: T3, Streptokinase A (Streptococcus pyogenes serotype M1, UniProt P10520); assay: viability-normalized secreted streptokinase activity reduction – plasminogen activation absorbance, OD405, dose response (AID 1914); assay type: functional, Streptococcus pyogenes M1 GAS;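 also: secreted streptokinase activity via plasminogen activation per viability signal from cell pellet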
T3 sequence (P10520 whole entry): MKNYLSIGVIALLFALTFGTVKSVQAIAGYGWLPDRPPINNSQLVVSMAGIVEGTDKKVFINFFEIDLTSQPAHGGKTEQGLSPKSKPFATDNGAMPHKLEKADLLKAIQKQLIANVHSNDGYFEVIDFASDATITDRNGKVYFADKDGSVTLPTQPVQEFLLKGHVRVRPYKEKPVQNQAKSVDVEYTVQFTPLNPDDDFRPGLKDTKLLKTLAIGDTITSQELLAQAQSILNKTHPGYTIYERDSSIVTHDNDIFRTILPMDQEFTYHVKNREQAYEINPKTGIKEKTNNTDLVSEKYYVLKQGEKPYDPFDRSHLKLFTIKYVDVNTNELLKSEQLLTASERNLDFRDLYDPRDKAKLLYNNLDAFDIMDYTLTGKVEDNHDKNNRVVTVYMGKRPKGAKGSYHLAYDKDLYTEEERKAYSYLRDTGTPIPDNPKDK

Caspase-3 = molecular target: T4, Caspase-3 (Homo sapiens, UniProt P42574); assay type: functional;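 also: Dose-response selectivity test against caspase-3 for candidate inhibitors of sentrin-specific proteases (SENPs)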
T4 sequence (P42574 whole entry): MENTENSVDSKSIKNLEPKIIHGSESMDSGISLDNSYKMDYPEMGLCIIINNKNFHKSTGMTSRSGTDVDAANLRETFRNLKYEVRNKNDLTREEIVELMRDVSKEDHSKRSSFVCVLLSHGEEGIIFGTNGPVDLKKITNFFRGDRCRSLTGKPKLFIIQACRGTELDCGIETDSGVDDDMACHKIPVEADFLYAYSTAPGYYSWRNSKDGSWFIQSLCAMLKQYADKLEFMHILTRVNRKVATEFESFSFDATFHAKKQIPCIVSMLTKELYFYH

[4] = molecular target: T5, Sentrin-specific protease 8 (Homo sapiens, UniProt Q96LD8); assay type: functional;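 also: luminescence read-out of SENP8 inhibition, dose-response confirmation following an ultra-high-throughput screen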
T5 sequence (Q96LD8 whole entry): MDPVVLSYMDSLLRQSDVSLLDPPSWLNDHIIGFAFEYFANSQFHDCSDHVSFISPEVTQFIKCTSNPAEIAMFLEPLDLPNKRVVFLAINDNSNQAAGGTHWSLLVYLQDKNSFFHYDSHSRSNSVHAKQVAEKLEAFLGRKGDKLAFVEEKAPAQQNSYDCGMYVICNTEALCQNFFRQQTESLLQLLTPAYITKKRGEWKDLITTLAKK

Protein Wnt-3a = Protein Wnt-3a (Mus musculus, UniProt P27467); assay: antagonism of Wnt3a pathway luciferase reporter – Wnt-LIGHT cells, luminescence, selectivity assay for Gli-SUFU antagonist project, dose response (AID 651570); assay type: functional; conditions: read-out: IC50_Mean;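 also: Wnt-LIGHT reporter cells stimulated with conditioned medium from Wnt3a-producing cells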
Protein skinhead-1 = molecular target: T6, Protein skinhead-1 (Caenorhabditis elegans, UniProt P34707); assay type: functional
T6 sequence (P34707 whole entry): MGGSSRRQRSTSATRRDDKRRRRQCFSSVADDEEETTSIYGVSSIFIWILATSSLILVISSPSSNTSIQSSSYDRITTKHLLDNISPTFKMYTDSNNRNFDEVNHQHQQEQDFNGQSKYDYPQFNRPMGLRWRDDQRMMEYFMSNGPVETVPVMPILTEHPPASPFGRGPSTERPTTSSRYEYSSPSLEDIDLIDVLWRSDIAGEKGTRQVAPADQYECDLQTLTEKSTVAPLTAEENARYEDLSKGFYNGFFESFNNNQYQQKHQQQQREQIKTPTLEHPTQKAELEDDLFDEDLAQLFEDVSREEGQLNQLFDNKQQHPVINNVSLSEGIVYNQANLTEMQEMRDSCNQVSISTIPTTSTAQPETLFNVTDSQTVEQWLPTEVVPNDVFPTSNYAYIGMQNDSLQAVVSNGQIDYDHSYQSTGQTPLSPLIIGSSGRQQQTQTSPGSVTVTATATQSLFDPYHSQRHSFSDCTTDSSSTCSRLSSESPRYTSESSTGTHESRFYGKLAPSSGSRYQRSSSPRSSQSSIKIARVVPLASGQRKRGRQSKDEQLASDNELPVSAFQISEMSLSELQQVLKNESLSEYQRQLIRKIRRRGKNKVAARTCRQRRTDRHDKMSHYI

[5] = molecular target: T7, Polyadenylate-binding protein 1 (Homo sapiens, UniProt P11940); assay: MLLE domain peptide-binding blockers, IC50 – biochemical, fluorescence polarization, FITC-PAM2 peptide, dose response (AID 602259); assay type: functional; conditions: read-out: IC50_Mean
[6] = molecular target: T7, Polyadenylate-binding protein 1; assay: MLLE binding blockers, Cy5 peptide tracer – biochemical, fluorescence polarization, Cy5-PAM2 peptide, secondary, miRNA deadenylation inhibitor project, dose response (AID 602260); assay type: functional; conditions: read-out: IC50_Mean
[7] = Fluorescence-based cell-based high throughput dose response assay for inhibitors of the interaction of nucleotide-binding oligomerization domain containing 2 (NOD2) and the receptor-interacting serine-threonine kinase 2 (RIPK2).; assay type: functional; conditions: Homo sapiens
[8] = molecular target: Adenosylmethionine-8-amino-7-oxononanoate aminotransferase (Mycobacterium tuberculosis, UniProt P9WQ81); assay: Mycobacterium tuberculosis BioA enzyme inhibitor Measured in Biochemical System Using Plate Reader - 2163-02_Inhibitor_Dose_CherryPick_Activity.; assay type: functional, Mycobacterium tuberculosis UT205
Adenosylmethionine-8-amino-7-oxononanoate aminotransferase, sequence (P9WQ81 whole entry): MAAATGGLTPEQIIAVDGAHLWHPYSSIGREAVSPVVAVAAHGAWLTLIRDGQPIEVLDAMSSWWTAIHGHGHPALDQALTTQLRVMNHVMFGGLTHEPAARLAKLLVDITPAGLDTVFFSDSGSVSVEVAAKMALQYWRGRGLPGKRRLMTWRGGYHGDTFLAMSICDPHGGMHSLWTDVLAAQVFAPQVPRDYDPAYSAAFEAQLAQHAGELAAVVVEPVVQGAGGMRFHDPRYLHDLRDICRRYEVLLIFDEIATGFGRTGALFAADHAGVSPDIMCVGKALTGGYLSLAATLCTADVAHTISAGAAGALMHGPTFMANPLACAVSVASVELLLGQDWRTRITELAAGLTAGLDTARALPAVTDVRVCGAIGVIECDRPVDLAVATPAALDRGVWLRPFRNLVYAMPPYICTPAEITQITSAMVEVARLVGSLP

T7 sequence (P11940 whole entry, the tested form may be a part): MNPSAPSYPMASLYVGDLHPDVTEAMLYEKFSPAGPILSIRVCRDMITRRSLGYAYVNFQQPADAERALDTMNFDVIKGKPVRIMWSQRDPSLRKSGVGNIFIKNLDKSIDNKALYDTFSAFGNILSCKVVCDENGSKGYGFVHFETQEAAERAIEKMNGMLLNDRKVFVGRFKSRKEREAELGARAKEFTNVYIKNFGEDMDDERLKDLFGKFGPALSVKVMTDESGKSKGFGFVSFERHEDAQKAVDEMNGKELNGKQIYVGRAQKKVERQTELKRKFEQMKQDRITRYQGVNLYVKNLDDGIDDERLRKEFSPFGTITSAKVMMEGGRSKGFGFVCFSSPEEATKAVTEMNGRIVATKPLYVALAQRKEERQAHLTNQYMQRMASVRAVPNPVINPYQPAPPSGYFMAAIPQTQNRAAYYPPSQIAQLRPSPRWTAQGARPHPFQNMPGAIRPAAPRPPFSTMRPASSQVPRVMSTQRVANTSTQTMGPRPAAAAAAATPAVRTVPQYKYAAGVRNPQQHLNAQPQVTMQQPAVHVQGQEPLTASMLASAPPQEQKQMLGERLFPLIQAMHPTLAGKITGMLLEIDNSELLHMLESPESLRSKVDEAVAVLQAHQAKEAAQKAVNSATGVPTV
Protein Wnt-3a, sequence (P27467 whole entry): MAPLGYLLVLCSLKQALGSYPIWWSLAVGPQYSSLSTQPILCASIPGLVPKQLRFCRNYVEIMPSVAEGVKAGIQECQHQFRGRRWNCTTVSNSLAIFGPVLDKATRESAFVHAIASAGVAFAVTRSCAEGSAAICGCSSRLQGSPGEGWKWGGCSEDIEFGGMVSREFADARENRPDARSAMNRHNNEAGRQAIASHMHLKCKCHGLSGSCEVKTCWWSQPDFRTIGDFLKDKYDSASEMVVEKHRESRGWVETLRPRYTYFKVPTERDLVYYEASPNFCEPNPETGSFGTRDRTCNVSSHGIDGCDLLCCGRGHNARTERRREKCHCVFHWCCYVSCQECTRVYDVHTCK

## Cc1n[nH]c(Nc2ccc(C(C)C)cc2)c1[N+](=O)[O-]
[1]
  IC50: 9.42 µM (active)
[2]
  EC50: 30.9 µM (active)
[3]
  IC50: 10.1 µM (active)
Streptococcus
  EC50: > 150 µM (not active)
Streptokinase A
  EC50: 22.3 µM (active)
Caspase-3
  IC50: 36 µM (active)
[4]
  IC50: > 100 µM (inactive)

## CCOc1ccc(NS(=O)(=O)c2cccc(C(=O)N3CCN(C/C=C/c4ccccc4)CC3)c2)cc1
Protein Wnt-3a
  IC50: 22.7 µM (inactive)

## O=c1c2ccccc2oc2ccc(-c3ccc4[nH]ccc4c3)cc12
[1]
  IC50: 6.1 µM (active)
[3]
  IC50: 33.7 µM (active)
Caspase-3
  IC50: 75.1 µM (active)
[4]
  IC50: > 100 µM (inactive)
Protein skinhead-1
  IC50: 4.77 µM (active)

## C=CCNC(=S)N/N=C(\C)c1cccc(OC)c1
[5]
  IC50: > 66 µM (inactive)
[6]
  IC50: > 66 µM (inactive)

## CCOC(=O)[C@]12Cc3c(cc(OC)c(OC)c3OC)[C@H]1N(C1CCCCC1)C(=O)c1cc(OC)ccc12
[7]
  IC50: 2.36 µM (active)

## CNC(=O)C[C@H]1CC[C@@H]2[C@H](COC[C@@H](O)CN2C(=O)Nc2ccc(Cl)c(Cl)c2)O1
[8]
  AC50: 1.88 µM (active)
